Measured values: patent publication US8822517B2, “Arylosulfonamides for the treatment of CNS diseases” (Adamed SP. Z O.O., priority 2010, dated 2014)
Like-named read-outs stand apart in the source and are kept apart here.

Tests used:
[1] = target: T1, serotoninergic 5-HT2A receptor (Homo sapiens, UniProt P28223); experiment: Cellular functional assay, serotoninergic 5-HT2A receptor (agonism/antagonism); format: cell-based; details: for activation at 1 µM: read-out: 5-HT2A -ag [%]; for inhibition at 1 µM: read-out: 5-HT2A -antag [%]
Description: (§1) […]. The compounds were tested at the concentration of 1×10^−6M.
(§2) Conditions and methodology (by reference to the literature) of cellular functional assays are given in Table 13 and the tests results for representative compounds are given in Table 14 (dopaminergic receptor D2), in Table 15 (dopaminergic receptor D3), in Table 16 (serotoninergic receptor 5-HT1A), in Table 17 (serotoninergic receptor 5-HT2A), in Table 18 (serotoninergic receptor 5-HT6), in Table 19 (serotoninergic receptor 5-HT7), in Table 20 (adrenergic α1 receptor), in Table 21 (adrenergic α2C receptor), in Table 22 (histaminergic H1 receptor) and in Table 23 (serotoninergic 5-HT2C receptor). In the Tables ag refers to agonism, and antag to antagonism).

dopaminergic D2 receptor [2] = target: T2, dopaminergic D2 receptor (Homo sapiens, UniProt P14416); experiment: Binding assay D2S (h), [3H]methyl-spiperone, HEK-293 cells; parameters: expressed in transfected cells; host or cells: HEK-293 cells; details: read-out: D2 [%]
Procedure, shortened: (§3)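 Specific ligand binding was taken as total minus non-specific binding, with the latter defined in the presence of surplus unlabelled ligand. Each compound was tested at a single 1×10^−6 M concentration.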
Target sequence in this assay (P14416 1-414 isoform P14416-2): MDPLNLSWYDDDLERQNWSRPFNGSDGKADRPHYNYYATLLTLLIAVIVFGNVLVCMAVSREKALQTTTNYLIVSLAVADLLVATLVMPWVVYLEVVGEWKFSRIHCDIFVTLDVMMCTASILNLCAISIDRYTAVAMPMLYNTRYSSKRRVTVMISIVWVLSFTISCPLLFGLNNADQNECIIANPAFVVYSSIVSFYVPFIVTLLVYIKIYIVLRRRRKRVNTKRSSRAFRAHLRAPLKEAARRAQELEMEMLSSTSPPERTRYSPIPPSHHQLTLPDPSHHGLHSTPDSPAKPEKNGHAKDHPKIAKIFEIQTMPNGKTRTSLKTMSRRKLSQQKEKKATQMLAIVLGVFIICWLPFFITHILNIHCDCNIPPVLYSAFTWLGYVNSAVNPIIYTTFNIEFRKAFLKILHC

[3] = target: T3, serotonine transporter (SERT) receptor (Homo sapiens, UniProt P31645); experiment: Binding assay SERT (h), [3H]imipramine, CHO cells; details: read-out: SERT [%]
T3 construct: expressed in transfected cells; host or cells: CHO cells
Procedure, shortened: as §3

[4] = target: T4, serotoninergic 5-HT7 receptor (Homo sapiens, UniProt P34969); experiment: Binding assay 5-HT7 (h), [3H]LSD, CHO cells; parameters: expressed in transfected cells; host or cells: CHO cells; details: read-out: 5-HT7
Procedure, shortened: as §3

adrenergic α2C receptor = target: T5, adrenergic α2C receptor (Homo sapiens, UniProt P18825); experiment: Binding assay α2C (h), [3H]RX 821002, CHO cells; parameters: expressed in transfected cells; host or cells: CHO cells; details: read-out: α2C [%]
T5 sequence (P18825 1-462): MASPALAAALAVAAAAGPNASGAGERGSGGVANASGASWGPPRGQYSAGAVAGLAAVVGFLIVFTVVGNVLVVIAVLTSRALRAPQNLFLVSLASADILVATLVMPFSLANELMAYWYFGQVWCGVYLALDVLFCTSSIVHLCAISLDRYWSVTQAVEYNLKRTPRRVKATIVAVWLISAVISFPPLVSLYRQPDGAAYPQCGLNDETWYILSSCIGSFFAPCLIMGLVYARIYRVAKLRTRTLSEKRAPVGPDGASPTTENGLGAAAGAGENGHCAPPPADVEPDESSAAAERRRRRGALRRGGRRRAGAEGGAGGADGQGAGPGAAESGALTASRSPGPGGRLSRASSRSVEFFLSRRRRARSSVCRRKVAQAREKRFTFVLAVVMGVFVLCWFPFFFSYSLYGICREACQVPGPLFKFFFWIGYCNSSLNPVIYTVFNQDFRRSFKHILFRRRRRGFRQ
Procedure, shortened: as §3

[5] = target: histaminergic H1 receptor (Homo sapiens, UniProt P35367); experiment: Binding assay H1 (h), [3H]pyrilamine, HEK-293 cells; parameters: expressed in transfected cells; host or cells: HEK-293 cells; details: read-out: H1 [%]
Procedure, shortened: as §3

[6] = target: T1, serotoninergic 5-HT2A receptor; experiment: Binding assay 5-HT2A (h), [3H]ketanserin, HEK-293 cells; parameters: expressed in transfected cells; host or cells: HEK-293 cells; details: read-out: 5-HT2A
Procedure, shortened: as §3

adrenergic α1 receptor = experiment: Binding assay α1 (non-selective), [3H]prazosin, rat cerebral cortex; details: percent inhibition of control specific binding; compounds tested at 1×10^−6 M
Procedure, shortened: as §3

muscarinic M3 receptor = target: T6, muscarinic M3 receptor (Homo sapiens, UniProt P20309); experiment: Binding assay M3 (h), [3H]4-DAMP, CHO cells; details: read-out: M3 [%]
T6 construct: expressed in transfected cells; host or cells: CHO cells
Procedure, shortened: as §3

sigma σ receptor = experiment: Binding assay σ (non-selective), [3H]DTG, rat cerebral cortex; details: percent inhibition of control specific binding; compounds tested at 1×10^−6 M
Procedure, shortened: as §3

[7] = target: T4, serotoninergic 5-HT7 receptor; experiment: Cellular functional assay, serotoninergic 5-HT7 receptor (agonism/antagonism); format: cell-based; details: for activation at 1 µM: read-out: 5-HT7-ag [%]; for inhibition at 1 µM: read-out: 5-HT7-antag. [%]
Description: (§4) The compounds were tested at the concentration of 1×10^−6M.
(§5) In the Tables ag refers to agonism, and antag to antagonism).

dopaminergic D2 receptor [8] = target: T2, dopaminergic D2 receptor; experiment: Cellular functional assay, dopaminergic D2 receptor (agonism/antagonism); format: cell-based
Description: as §4, §5
Target sequence in this assay (P14416 whole entry): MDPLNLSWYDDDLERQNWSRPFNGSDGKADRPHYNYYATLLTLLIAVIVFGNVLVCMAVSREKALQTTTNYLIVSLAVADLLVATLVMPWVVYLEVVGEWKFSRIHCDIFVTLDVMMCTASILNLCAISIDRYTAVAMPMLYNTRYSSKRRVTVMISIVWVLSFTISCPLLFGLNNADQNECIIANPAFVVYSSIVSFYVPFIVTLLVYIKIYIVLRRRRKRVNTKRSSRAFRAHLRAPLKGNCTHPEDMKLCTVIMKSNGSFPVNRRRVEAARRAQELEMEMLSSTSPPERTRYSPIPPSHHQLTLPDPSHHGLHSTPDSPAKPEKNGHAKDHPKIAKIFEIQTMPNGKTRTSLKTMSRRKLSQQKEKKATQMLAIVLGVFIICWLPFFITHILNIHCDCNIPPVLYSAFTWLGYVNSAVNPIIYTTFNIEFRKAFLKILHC

adrenergic α1A receptor = target: T7, adrenergic α1A receptor (Homo sapiens, UniProt P35348); experiment: Cellular functional assay, adrenergic α1A receptor (agonism/antagonism); format: cell-based; details: for activation at 1 µM: read-out: α1A -ag [%]; for inhibition at 1 µM: read-out: α1A -antag. [%]
T7 sequence (P35348 1-466): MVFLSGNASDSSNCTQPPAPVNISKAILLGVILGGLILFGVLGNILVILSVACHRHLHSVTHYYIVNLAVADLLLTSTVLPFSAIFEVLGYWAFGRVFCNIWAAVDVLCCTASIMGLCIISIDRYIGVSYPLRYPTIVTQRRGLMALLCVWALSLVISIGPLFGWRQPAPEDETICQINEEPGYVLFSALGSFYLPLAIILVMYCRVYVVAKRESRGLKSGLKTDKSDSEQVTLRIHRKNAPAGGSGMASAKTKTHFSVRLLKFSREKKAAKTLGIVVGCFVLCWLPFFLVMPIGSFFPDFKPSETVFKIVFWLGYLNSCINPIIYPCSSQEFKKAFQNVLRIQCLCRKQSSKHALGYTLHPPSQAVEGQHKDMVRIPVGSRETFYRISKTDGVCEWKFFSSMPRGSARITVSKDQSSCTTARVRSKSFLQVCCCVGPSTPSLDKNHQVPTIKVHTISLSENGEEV
Description: as §1, §2

dopaminergic D3 receptor = dopaminergic D3 receptor (Homo sapiens, UniProt P35462); experiment: Cellular functional assay, dopaminergic D3 receptor (agonism/antagonism); format: cell-based
Description: as §4, §5

[9] = agonist effect, percent of control specific agonist response, compounds tested at 1×10^−6M
[10] = HEK293; agonist effect, percent of control specific agonist response (3 μM dopamine for control); 1×10^−6 M; D2S (h), HEK-293 cells; read-out: D2-ag [%]
[11] = HEK293; read-out: D2-antag. [%]
[12] = agonist effect, percent of control specific agonist response (300 nM dopamine for control); 1×10^−6 M; D3 (h), CHO cells; read-out: D3-ag [%]

T3 sequence (P31645 whole entry): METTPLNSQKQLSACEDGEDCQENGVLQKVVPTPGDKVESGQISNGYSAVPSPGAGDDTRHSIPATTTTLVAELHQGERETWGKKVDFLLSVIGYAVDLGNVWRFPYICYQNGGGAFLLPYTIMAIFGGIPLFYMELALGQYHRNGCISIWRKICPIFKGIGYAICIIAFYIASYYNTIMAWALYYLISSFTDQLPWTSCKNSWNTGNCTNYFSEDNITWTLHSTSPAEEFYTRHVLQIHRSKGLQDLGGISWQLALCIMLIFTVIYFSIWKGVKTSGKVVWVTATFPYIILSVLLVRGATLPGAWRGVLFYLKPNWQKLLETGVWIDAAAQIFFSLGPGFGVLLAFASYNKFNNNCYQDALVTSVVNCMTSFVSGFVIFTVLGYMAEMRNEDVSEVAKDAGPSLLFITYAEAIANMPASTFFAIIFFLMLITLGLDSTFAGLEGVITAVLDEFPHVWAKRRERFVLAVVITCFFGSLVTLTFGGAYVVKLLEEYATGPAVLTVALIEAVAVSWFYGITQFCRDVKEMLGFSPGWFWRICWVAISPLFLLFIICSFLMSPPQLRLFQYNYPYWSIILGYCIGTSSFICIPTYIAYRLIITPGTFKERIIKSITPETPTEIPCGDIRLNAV
T4 sequence (P34969 whole entry): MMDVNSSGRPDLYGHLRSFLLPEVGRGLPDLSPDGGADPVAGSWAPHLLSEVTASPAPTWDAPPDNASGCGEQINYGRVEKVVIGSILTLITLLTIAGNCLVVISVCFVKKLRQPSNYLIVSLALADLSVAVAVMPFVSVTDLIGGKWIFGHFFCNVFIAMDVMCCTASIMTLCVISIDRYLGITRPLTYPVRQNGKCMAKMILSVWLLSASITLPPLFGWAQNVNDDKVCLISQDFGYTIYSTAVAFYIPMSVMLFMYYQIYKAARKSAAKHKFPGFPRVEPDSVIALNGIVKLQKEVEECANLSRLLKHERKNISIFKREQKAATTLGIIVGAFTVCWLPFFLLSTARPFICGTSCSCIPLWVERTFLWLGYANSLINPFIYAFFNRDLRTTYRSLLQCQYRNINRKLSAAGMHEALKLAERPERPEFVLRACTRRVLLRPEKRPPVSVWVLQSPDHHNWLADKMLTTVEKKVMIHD
T6 sequence (P20309 whole entry): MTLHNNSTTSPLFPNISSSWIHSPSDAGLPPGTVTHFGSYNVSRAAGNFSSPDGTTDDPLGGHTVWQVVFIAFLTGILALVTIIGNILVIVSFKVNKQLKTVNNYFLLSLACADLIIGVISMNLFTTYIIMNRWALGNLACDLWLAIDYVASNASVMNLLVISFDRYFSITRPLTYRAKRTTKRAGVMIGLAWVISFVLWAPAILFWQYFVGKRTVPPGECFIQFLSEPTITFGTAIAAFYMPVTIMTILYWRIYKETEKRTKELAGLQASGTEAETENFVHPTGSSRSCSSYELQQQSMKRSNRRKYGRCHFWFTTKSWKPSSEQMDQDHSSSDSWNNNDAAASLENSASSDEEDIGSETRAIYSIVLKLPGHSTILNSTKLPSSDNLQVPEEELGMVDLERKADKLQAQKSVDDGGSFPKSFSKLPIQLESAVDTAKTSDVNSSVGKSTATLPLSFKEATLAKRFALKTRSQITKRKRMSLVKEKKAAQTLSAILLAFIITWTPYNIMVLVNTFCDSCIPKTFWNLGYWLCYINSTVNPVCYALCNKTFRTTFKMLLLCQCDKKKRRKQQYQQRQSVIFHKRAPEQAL
T1 sequence (P28223 whole entry): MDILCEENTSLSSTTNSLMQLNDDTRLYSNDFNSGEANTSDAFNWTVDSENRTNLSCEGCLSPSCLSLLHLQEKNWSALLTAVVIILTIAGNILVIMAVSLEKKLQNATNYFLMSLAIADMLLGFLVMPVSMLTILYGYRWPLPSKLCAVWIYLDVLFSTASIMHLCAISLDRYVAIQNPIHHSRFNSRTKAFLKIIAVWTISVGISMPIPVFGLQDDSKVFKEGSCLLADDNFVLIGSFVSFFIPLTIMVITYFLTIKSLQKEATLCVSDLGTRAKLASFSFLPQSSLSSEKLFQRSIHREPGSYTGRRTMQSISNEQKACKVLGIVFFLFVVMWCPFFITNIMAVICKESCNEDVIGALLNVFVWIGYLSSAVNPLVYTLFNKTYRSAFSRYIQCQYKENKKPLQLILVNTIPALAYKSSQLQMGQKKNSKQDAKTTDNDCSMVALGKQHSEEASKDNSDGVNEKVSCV
Sequence of dopaminergic D3 receptor (P35462 whole entry): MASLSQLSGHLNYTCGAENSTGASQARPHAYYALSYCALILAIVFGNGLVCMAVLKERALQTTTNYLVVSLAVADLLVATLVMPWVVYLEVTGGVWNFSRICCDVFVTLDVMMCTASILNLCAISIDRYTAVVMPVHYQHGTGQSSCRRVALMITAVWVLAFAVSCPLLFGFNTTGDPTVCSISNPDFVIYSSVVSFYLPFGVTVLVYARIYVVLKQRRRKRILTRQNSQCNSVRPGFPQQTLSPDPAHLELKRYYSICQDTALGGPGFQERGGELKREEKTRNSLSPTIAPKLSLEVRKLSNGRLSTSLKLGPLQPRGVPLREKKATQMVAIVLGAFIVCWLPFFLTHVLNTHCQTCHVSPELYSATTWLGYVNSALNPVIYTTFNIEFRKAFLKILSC
Sequence of histaminergic H1 receptor (P35367 whole entry): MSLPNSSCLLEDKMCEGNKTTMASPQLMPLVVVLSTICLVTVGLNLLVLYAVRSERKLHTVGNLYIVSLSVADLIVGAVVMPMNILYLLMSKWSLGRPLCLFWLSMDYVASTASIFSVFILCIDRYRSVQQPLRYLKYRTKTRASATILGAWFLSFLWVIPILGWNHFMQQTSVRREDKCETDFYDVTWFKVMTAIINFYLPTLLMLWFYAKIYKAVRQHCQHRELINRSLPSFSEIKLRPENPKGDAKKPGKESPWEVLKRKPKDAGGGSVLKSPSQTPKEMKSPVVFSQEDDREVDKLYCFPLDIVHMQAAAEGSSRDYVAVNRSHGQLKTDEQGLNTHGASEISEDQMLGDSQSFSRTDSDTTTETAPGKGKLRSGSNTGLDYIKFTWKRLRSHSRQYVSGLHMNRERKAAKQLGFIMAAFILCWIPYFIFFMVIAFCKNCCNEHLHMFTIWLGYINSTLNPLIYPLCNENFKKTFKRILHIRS

Compound	activation at 1 µM [1]	inhibition at 1 µM [1]	inhibition at 1 µM (dopaminergic D2 receptor [2])	inhibition at 1 µM [3]	inhibition at 1 µM [4]	inhibition at 1 µM (adrenergic α2C receptor)	inhibition at 1 µM [5]	inhibition at 1 µM [6]	α1 [%] (adrenergic α1 receptor)	inhibition at 1 µM (muscarinic M3 receptor)	σ [%] (sigma σ receptor)	activation at 1 µM [7, 9]	inhibition at 1 µM [7]	activation at 1 µM (dopaminergic D2 receptor [8]; [10])	inhibition at 1 µM (dopaminergic D2 receptor [8]; [11])	activation at 1 µM (adrenergic α1A receptor; [9])	inhibition at 1 µM (adrenergic α1A receptor)	inhibition at 1 µM (dopaminergic D3 receptor; CHO; read-out: D3-antag. [%])	activation at 1 µM (dopaminergic D3 receptor; [12])	also measured
O=S(=O)(NCCCCN1CCN(c2nsc3ccccc23)CC1)c1cccc2ccccc12 [Compound 1, N-(4-(4-(1,2-Benzothiazol-3-yl)piperazin-1-yl)butyl)naphthalene-1-sulphonamide]	0%	99%	97%	49%	96%	100%	91%	99%	99%	13%	54%	-1%	97%	-1%	95%	0%	100%	49%	-17%	
O=S(=O)(NCCCCN1CCN(c2nsc3ccccc23)CC1)c1ccc2ccccc2c1 [Compound 2, N-(4-(4-(1,2-Benzothiazol-3-yl)piperazin-1-yl)butyl)naphthalene-2-sulphonamide]	2%	102%	98%	69%	97%	101%	94%	100%	97%	17%	65%		80%				100%			activation at 1 µM [7]: -1%; activation at 1 µM (dopaminergic D2 receptor [8]; HEK293, read-out: D2-ag [%]): 2%; inhibition at 1 µM (dopaminergic D2 receptor [8]; HEK293, read-out: D2-antag. [%]): 97%; activation at 1 µM (adrenergic α1A receptor): 0%; activation at 1 µM (dopaminergic D3 receptor; CHO, read-out: D3-ag [%]): -15%; inhibition at 1 µM (dopaminergic D3 receptor; CHO, read-out: D3-antag. [%]): 81%
O=S(=O)(NCCCCN1CCC(c2noc3cc(F)ccc23)CC1)c1ccc2ccccc2c1 [Compound 18, N-[4-[4-(6-Fluoro-1,2-benzoxazol-3-yl)piperidin-1-yl]butyl]naphthalene-2-sulphonamide]	-1%	102%	98%	39%	98%	100%	79%	100%		6%		-1%	89%	-1%	98%	0%	99%	114%	-27%	
O=S(=O)(NCCCCN1CCN(c2noc3ccccc23)CC1)c1c[nH]c2ncccc12 [Compound 89, N-[4-[4-(1,2-Benzoxazol-3-yl)piperazin-1-yl]butyl]-1H-pyrrolo[2,3-b]pyridine-3-sulphonamide]	-2%	94%	89%	2%	98%	98%	85%	99%	98%	22%	−1%	-2%	91%			-1%	100%	69%	-18%	
O=S(=O)(NCCCN1CCC(c2noc3cc(F)ccc23)CC1)c1ccc2cc(Cl)ccc2c1 [Compound 98, 6-Chloro-N-[3-[4-(6-fluoro-1,2-benzoxazol-3-yl)piperidin-1-yl]propyl]naphthalene-2-sulphonamide]	-2%	97%	101%	54%	98%	108%	100%	102%		16%		-2%	92%	4%	80%	0%	99%	109%	-10%	
O=S(=O)(NCCCCN1CCN(c2noc3ccccc23)CC1)c1ccc(-c2ccccc2)cc1 [Compound 283, N-[4-[4-(1,2-Benzoxazol-3-yl)piperazin-1-yl]butyl]-4-phenylbenzenesulphonamide]	0%	99%	99%	24%	99%	109%	96%	103%	92%	-4%	34%	-2%	93%			0%	100%	58%	-10%	
O=S(=O)(NCCCN1CCC(c2noc3cc(F)ccc23)CC1)c1ccc(F)c(Cl)c1 [Compound 331, 3-Chloro-4-fluoro-N-[3-[4-(6-fluoro-1,2-benzoxazol-3-yl)piperidin-1-yl]propyl]benzenesulphonamide]	-1%	98%	100%	31%	99%	104%	97%	102%		10%		-2%	102%	4%	87%	1%	100%	114%	-15%	
